The test system of the assay is T1, endogenous COS-1 cell Na+, K+-ATPase.
T1 construct: gene ATP1A1; endogenous enzyme in COS-1 plasma membranes
The assay can be described thus: high-affinity phase of biphasic ouabain inhibition of Na+,K+-ATPase activity in plasma membranes. Format: biochemical.

The record followed here is article PMC6746705, “Distinct effects of Q925 mutation on intracellular and extracellular Na^+ and K^+ binding to the Na^+, K^+-ATPase” (Scientific Reports, 2019).

Usually IC50 stands for the concentration that inhibits the measured activity by half. A high value points to lower potency.

`C[C@@H]1O[C@@H](O[C@H]2C[C@@H](O)[C@]3(CO)[C@H]4[C@H](O)C[C@]5(C)[C@@H](C6=CC(=O)OC6)CC[C@]5(O)[C@@H]4CC[C@]3(O)C2)[C@H](O)[C@H](O)[C@H]1O` [ouabain] came in with an IC50 of roughly 1000 nM.
